This is an account of results in paper PMC5793714, “Functional implications of corticosteroid-binding globulin N-glycosylation” (Journal of Molecular Endocrinology, 2017).

In one test the target is T1, rat CBG (Rattus norvegicus, UniProt P31211).
T1 construct: gene Serpina6; full-length cDNA in pcDNA3, secreted mature N-glycosylated protein from stably transfected CHO-S cells (also Lec1 and Lec2 lines), FPLC semi-purified or concentrated medium; no tag told
T1 sequence (P31211 23-396): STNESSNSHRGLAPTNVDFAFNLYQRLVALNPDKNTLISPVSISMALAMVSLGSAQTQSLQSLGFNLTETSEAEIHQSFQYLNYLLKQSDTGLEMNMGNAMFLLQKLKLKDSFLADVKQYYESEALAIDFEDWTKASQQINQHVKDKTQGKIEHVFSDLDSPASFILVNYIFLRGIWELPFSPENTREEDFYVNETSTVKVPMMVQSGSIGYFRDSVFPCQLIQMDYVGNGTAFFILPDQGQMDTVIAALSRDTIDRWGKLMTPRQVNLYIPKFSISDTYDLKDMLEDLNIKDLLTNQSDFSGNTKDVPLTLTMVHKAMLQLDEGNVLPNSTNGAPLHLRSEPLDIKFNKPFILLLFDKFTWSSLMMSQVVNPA
The experiment in a line: saturation binding, dextran-coated charcoal, Scatchard.

Test [1] has as its target T2, human CBG (corticosteroid-binding globulin, SERPINA6) (Homo sapiens, UniProt P08185).
T2 construct: full-length cDNA in pRc/CMV, secreted mature N-glycosylated protein from stably transfected CHO-S cells (also Lec1 and Lec2 lines), semi-purified by HiTrap QFF FPLC or concentrated medium; no tag told
T2 sequence (P08185 23-405): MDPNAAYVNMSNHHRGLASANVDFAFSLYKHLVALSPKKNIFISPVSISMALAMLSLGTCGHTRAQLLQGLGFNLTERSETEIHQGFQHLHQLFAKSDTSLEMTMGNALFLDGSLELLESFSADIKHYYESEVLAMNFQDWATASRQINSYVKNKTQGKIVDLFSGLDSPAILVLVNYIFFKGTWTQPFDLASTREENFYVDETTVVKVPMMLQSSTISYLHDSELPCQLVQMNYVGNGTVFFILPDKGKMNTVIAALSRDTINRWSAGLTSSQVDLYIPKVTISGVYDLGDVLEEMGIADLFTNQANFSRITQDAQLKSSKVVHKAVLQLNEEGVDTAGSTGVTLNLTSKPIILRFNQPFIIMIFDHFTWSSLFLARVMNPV
The test is described as above.

Regarding `C[C@]12C[C@H](O)[C@H]3[C@@H](CCC4=CC(=O)CC[C@@]43C)[C@@H]1CC[C@@H]2C(=O)CO` [corticosterone], at rat CBG, binding was put at a Kd of 2.1 nM. Molecule `C[C@]12CCC(=O)C=C1CC[C@@H]1[C@@H]2[C@@H](O)C[C@@]2(C)[C@H]1CC[C@]2(O)C(=O)CO` [cortisol] returned a Kd in test [1] of 1.1 nM.

What is called Kd is the free concentration of one partner at which half of the binding sites on the other are occupied at equilibrium, for simple one-to-one binding. Low readings indicate higher affinity, high ones lower affinity.
